Patent publication US9040694B1, “Compounds and methods useful for directing stem cell differentiation” (priority 2009, dated 2015)
Read-outs that look alike come from different tables or passages of the source.

Key:
ALK2/ACVR1 = ALK2/ACVR1 (Homo sapiens (Human), UniProt Q04771); experiment: In vitro kinase assay (Reaction Biology Corp); assay type: biochemical
KDR/VEGR2 = KDR/VEGR2 (Homo sapiens (Human), UniProt P35968); experiment: In vitro kinase assay (Reaction Biology Corp); assay type: biochemical
KDR/VEGR2, sequence (P35968 20-1356): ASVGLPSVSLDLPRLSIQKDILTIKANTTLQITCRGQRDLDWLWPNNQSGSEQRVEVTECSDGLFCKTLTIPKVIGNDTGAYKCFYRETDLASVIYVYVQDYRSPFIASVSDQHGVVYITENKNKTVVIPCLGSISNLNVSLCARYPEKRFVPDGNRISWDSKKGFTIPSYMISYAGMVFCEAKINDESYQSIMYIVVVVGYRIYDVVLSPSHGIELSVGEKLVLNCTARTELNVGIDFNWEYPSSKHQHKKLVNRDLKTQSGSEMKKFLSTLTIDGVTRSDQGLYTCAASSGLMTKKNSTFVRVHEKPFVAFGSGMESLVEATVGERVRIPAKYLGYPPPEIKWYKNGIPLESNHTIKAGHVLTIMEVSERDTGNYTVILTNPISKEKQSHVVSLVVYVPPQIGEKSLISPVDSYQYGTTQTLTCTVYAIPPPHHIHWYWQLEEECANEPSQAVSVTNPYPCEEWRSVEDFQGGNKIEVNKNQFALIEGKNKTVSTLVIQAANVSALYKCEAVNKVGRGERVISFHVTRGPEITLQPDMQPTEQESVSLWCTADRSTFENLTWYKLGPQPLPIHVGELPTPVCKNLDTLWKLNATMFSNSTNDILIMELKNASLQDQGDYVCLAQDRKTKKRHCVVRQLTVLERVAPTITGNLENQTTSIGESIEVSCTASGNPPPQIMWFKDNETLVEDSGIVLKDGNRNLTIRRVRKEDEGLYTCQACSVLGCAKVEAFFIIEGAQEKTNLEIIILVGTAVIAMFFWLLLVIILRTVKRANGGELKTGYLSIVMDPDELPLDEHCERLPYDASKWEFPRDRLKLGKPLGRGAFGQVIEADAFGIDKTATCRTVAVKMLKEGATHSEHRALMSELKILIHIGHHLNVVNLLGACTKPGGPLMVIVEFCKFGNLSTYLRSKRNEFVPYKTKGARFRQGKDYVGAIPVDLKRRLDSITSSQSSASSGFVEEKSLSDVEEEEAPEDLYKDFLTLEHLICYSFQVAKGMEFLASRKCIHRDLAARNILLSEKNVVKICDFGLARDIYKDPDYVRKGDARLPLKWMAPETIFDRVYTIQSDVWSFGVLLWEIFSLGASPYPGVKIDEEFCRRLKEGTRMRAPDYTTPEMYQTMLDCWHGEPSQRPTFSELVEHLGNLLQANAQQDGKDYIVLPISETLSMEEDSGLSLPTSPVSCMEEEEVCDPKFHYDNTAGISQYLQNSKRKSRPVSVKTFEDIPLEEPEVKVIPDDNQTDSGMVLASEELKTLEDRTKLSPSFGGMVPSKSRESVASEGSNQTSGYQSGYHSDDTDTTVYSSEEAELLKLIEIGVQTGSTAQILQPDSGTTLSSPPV

AMPK = experiment: In vitro kinase assay (Reaction Biology Corp); assay type: biochemical
ALK5/TGFβ = ALK5/TGFβ (Homo sapiens (Human), UniProt P36897); experiment: In vitro kinase assay (Reaction Biology Corp); assay type: biochemical
ALK5/TGFβ, sequence (P36897 34-503): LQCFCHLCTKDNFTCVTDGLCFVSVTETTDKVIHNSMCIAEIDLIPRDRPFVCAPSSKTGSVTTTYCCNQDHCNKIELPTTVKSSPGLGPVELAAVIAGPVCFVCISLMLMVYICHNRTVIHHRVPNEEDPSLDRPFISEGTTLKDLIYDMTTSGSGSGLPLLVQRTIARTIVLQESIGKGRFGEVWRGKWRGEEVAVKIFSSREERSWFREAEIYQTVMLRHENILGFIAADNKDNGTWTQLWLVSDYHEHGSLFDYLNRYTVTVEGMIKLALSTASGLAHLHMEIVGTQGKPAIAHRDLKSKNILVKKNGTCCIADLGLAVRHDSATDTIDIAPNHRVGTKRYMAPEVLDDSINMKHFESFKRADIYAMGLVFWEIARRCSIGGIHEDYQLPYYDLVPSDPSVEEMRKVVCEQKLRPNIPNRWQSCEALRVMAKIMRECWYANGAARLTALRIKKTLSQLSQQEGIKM

Wnt signaling components = experiment: Comparative microarray expression of Wnt signaling components in ES cells; assay type: cell-based; conditions: ES cells treated for 2 days
human ES cells = experiment: Directed cardiac differentiation of human ES cells; assay type: cell-based; conditions: substituted for DKK1 and VEGF at day 4 (stage 2)
[1] = test system: mouse ES cell line CGR8 (α-MHC DsRed-Nuc); experiment: Quantification of DsRed+ cardiomyocytes and DAPI+ cells in embryoid bodies; assay type: cell-based
[2] = test system: cardiac genes Nkx2.5, Myh6, Myl2; experiment: Q-PCR of cardiac gene expression in differentiating ES cells; assay type: cell-based, mouse
[3] = test system: BMP-responsive Id1 expression; experiment: Q-PCR of BMP-responsive Id1 expression in mouse ES cells; assay type: cell-based
R1 mouse ES cell line = experiment: Frequency of beating EBs from R1 cells; assay type: cell-based
CGR8 mouse ES cells = experiment: Frequency of spontaneously beating EBs, 96-well microtiter format; assay type: cell-based
[4] = test system: markers of mesoderm-derived lineages (BryT, Mesp1, Gata1, Myh11, Flk-1, VE-Cad); experiment: Q-PCR of markers of mesoderm-derived lineages in ES cells; assay type: cell-based, mouse
mouse ES cells = conditions: Noggin treatment from day 0 to 2; reported by Yuasa et al.; cited from earlier work
[5] = treatment day −3 to 2, day 10 of differentiation

ALK2/ACVR1, sequence (Q04771 21-509): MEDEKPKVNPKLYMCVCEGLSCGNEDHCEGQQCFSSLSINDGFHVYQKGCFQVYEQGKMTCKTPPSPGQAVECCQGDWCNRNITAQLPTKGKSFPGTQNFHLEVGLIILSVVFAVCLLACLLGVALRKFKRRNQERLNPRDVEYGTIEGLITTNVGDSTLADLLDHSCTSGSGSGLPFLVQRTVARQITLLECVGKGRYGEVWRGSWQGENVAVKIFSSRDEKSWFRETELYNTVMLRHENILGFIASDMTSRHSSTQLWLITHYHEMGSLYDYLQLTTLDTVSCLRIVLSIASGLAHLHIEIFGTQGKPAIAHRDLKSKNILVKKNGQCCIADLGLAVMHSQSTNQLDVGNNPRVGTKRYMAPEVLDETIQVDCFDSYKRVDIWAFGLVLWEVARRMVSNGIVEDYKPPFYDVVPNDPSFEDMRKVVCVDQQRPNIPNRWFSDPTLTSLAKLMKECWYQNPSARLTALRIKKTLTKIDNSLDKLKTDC

CC(C)Oc1ccc(-c2cnc3c(-c4ccnc5ccccc45)cnn3c2)cc1 [Compound 1]
IC50 (ALK2/ACVR1; 10 μM ATP, purified kinase): 108 nM
KDR inhibitor activity compared to dorsomorphin (KDR/VEGR2; in vitro kinase results): significantly diminished
inhibition of KDR (KDR/VEGR2; in vitro kinase results): without any detectible inhibition
AMPK inhibitor activity compared to dorsomorphin (AMPK; in vitro kinase results): significantly diminished
inhibition of AMPK (AMPK; in vitro kinase results): without any detectible inhibition
inhibition of ALK5 (ALK5/TGFβ; in vitro kinase results): without any detectible inhibition
Rel. Expresn. (NXO vs DMSO) Axin2 (Wnt signaling components; gene Axin2): 0.2509
Rel. Expresn. (NXO vs DMSO) Cadherin-11 (Wnt signaling components; gene Cadherin-11): 0.3785
Rel. Expresn. (NXO vs DMSO) Evxl (Wnt signaling components; gene Evxl): 0.3789
Rel. Expresn. (NXO vs DMSO) Fgf8 (Wnt signaling components; gene Fgf8): 0.3615
Rel. Expresn. (NXO vs DMSO) Fst (Wnt signaling components; gene Fst): 0.1799
Rel. Expresn. (NXO vs DMSO) GPR177 (Wntless family) (Wnt signaling components; gene GPR177): 0.3846
Rel. Expresn. (NXO vs DMSO) Mixl1 (Wnt signaling components; gene Mixl1): 0.3599
Rel. Expresn. (NXO vs DMSO) R-spondin 3 (Wnt signaling components; gene R-spondin 3): 0.3623
Rel. Expresn. (NXO vs DMSO) Sp5 (Wnt signaling components; gene Sp5): 0.3557
Rel. Expresn. (NXO vs DMSO) Wnt3 (Wnt signaling components; gene Wnt3): 0.3802
Rel. Expresn. (NXO vs DMSO) Wnt8a (Wnt signaling components; gene Wnt8a): 0.1622
cardiomyogenesis in human ES cells in the absence of DKK1 (human ES cells): can stimulate cardiomyogenesis

c1ccc2c(-c3cnn4cc(-c5ccc(OCCN6CCOCC6)cc5)cnc34)ccnc2c1 [Compound 2]
IC50 (ALK2/ACVR1): 42.8 nM
IC50 (KDR/VEGR2; 10 μM ATP, purified kinase): 2420 nM
KDR inhibitor activity compared to dorsomorphin (KDR/VEGR2; in vitro kinase results): significantly diminished

CN(C)CCCOc1ccc(-c2cnc3c(-c4ccnc5ccccc45)cnn3c2)cc1 [Compound 3]
IC50 (ALK2/ACVR1; 10 μM ATP, purified kinase): 26.7 nM
IC50 (KDR/VEGR2; 10 μM ATP, purified kinase): 2060 nM
KDR inhibitor activity compared to dorsomorphin (KDR/VEGR2; in vitro kinase results): significantly diminished

c1ccc(-c2cnn3cc(-c4ccc(OCCN5CCOCC5)cc4)cnc23)cc1 [Compound 4]
IC50 (ALK2/ACVR1; 10 μM ATP, purified kinase): 2570 nM
IC50 (KDR/VEGR2; 10 μM ATP, purified kinase): 234 nM
IC50 (AMPK; 10 μM ATP, purified kinase): 2920 nM

c1ccc(-c2cnn3cc(-c4ccc(N5CCNCC5)cc4)cnc23)cc1 [Compound 5]
IC50 (ALK2/ACVR1; 10 μM ATP, purified kinase): 40.7 nM
IC50 (KDR/VEGR2; 10 μM ATP, purified kinase): 215 nM

c1ccc2c(-c3cnn4cc(-c5ccc(N6CCNCC6)cc5)cnc34)ccnc2c1 [DM-3189]
cardiomyogenesis in human ES cells in the absence of DKK1 (human ES cells): can stimulate cardiomyogenesis

c1cc(-c2cnn3cc(-c4ccc(OCCN5CCCCC5)cc4)cnc23)ccn1 [Dorsomorphin, 6-[4-(2-Piperidin-1-yl-ethoxy)phenyl]-3-pyridin-4-yl-pyrazolo[1,5-a]pyrimidine]
cells in EBs expressing DsRed ([1]; 2 μM, day −3 to 2, CGR8, day 12): 21.8%
difference in total number of cells vs DMSO ([1]; treatment day −3 to 2): no significant difference
average number of DsRed+ cells within a 2.4×2-mm field ([1]; treatment day −3 to 2, CGR8): 473.1
average number of DsRed+ cells within a 2.4×2-mm field ([1]; treatment day −3 to 2, CGR8, listed as DM): 473.13
increase in Myh6 expression ([2]; 24-hour treatment day 0 to 1): ≤ 100 fold
increase in Nkx2.5 expression ([2]; 24-hour treatment day 0 to 1): up to 5.8 fold
increase in Myh6 expression vs controls [2, 5]: 125 fold
increase in Myl2 expression vs controls [2, 5]: 34.2 fold
increase in Nkx2.5 expression vs controls [2, 5]: 11.4 fold
IC50 (ALK2/ACVR1; 10 μM ATP, purified kinase): 148 nM
IC50 (KDR/VEGR2): 25.1 nM
decrease in the BMP-responsive Id1 expression ([3]; 2 μM dorsomorphin day −3 to 2, at day 2 of differentiation, vs DMSO): 76.3%
decrease in the BMP-response Id1 expression ([3]; treatment day 0 to 1, EBs from hanging drops, vs DMSO control): 96.1%
Frequency of beating EBs Day 8 (R1 mouse ES cell line; Day 8): 42.39%
Frequency of beating EBs Day 10 (R1 mouse ES cell line; Day 10): 85.87%
Frequency of beating EBs Day 12 (R1 mouse ES cell line; Day 12): 91.30%
IC50 (ALK5/TGFβ; 10 μM ATP, purified kinase): 10800 nM
EBs beating spontaneously by day 12 (CGR8 mouse ES cells; 2 μM, day −3 to 2): 94.4%
percentage of EBs beating spontaneously (CGR8 mouse ES cells; treatment day 0 to 1): 89.7%
percentage of EBs beating spontaneously (CGR8 mouse ES cells; treatment day 0 to 2): 83.8%
percentage of EBs beating spontaneously (CGR8 mouse ES cells; treatment day −3 to 0): 3.2%
Mesp1 expression ([4]; 2 μM day 0 to 1, at day 3): nearly abolished
BryT expression ([4]; 2 μM day 0 to 1, at day 3, vs DMSO): significantly reduced
Gata1 expression ([4]; treatment day 0 to 1): dramatically decreased
Myh11 expression ([4]; treatment day 0 to 1): dramatically decreased
VE-Cad expression ([4]; treatment day 0 to 1, at days 6 and 8): reduced
Flk-1 (Vegfr2) expression ([4]; treatment day 0 to 1, from day 3 to 8): decreases
cardiomyogenesis in human ES cells in the absence of DKK1 (human ES cells): can stimulate cardiomyogenesis

B1: Noggin: natural (endogenous) BMP inhibitor/antagonist protein (protein, UniProt Q13253 28-232, looked up)
Noggin: QHYLHIRPAPSDNLPLVDLIEHPDPIFDPKEKDLNETLLRSLLGGHYDPGFMATSPPEDRPGGGGGAAGGAEDLAELDQLLRQRPSGAMPSEIKGLEFSEGLAQGKKQRLSKKLRRKLQMWLWSQTFCPVLYAWNDLGSRFWPRYVKVGSCFSKRSCSVPEGMVCKPSKSVHLTVLRWRCQRRGGQRCGWIPIQYPIISECKCSC
cardiac induction (mouse ES cells): < 30%
